The text below walks through data of patent publication US10155751B2, “Pyrazolyl-substituted heteroaryls and their use as medicaments” (Boehringer Ingelheim International GmbH, priority 2015, dated 2018).

Like-named read-outs stand apart in the source and are kept apart here.

A word on the IC50: it is the concentration that inhibits the measured activity by half. By EC50 is commonly meant the concentration needed to bring the measured effect to its halfway point.

In assay [1] the target is Recombinant human FLT3 (amino acids 564-958) (Homo sapiens (Human), UniProt P36888). In words: FLT3 kinase test (ADP Glo). In kind it is biochemical. As for the experimental part:
The activity of the FLT3 kinase protein was determined using the ADP Glo® Luminescence Kinase test (Promega; V9103X). In this homogeneous test the amount of ADP remaining after the kinase reaction is quantified by a luciferin-luciferase reaction using luminescence. The luminescence signal obtained correlates with the amount of ADP still present and thus correlates with the activity of the protein kinase.
The test compounds were dissolved in 100% DMSO at a concentration of 10 mM and diluted in DMSO to a concentration of 5 mM. Serial Dilution is done in 1:10 steps in 100% DMSO. All further dilutions of the substances were carried out with test buffer (50 mM Hepes, pH 7.5, 10 mM MgCl2, 1 mM EGTA, 0.01% Brij35, 0.1% BSA) until a concentration was reached which was 2.5 times above the final test concentration (final concentration of the compounds: 50 μM to 0.005 nM). […] FLT3 enzyme was diluted to 5 nM in the test buffer and 4 μl of this dilution were used in the kinase test (final concentration of FLT3=2 nM in a total volume of 10 μl). After 60 minutes incubation at room temperature 2 μl mixture of 2.5 mg/ml substrate (Poly-Glu/Tyr; Sigma #P0275) and 2.5 mM ultra-pure ATP (Promega #V915B) in test buffer were added to each well and the incubation was continued for a further 90 minutes at room temperature.
Positive controls are the reaction mixtures that contain no test substance; negative controls (blanks) are reaction mixtures that contain no kinase.
After 90 minutes, 10 μl ADP-Glo® solution (ADP-Glo Reagent #V912B Promega) (heated to room temperature) were added to each well and incubation was continued for a further 60. minutes. Then 20 μl Kinase detection mix (Detection Buffer #V913B Promega; Kinase Detection Substrate #V914B Promega) were added and incubated for 40 minutes at room temperature. The plates were read in Envision Luminescence Reader (Perkin-Elmer).
The output file of the reader is a csv file that contains the well number and measured RLU. For data evaluation and calculation, the measurement of the negative control was set as 0% ctrl and the measurement of the positive control was set as 100% ctrl. Based on this values the % value for the measurement of each substance concentration can be calculated using an Assay Explorer software (e.g. Accelrys). Normally, the % ctrl values calculated are between 0% and 100% values but may also occur outside these limits in individual cases based on variability or compound characteristics. The IC50 values were calculated from the % ctrl values using Assay Explorer software. Calculation: [y=(a−d)/(1+(x/c)^b)+d], a=low value, d=high value; x=conc. M; c=IC50 M; b=hill; y=% ctrl.
(In ADP-Glo the light output rises with the ADP produced.)

In assay [2] the test system is SYK dependent basophil degranulation (CD63 surface expression on basophils in whole blood). Put plainly: CD63-assay (cellular assay for SYK-inhibition) in whole blood. In kind it is cell-based. As for the experimental part: In this assay, IgE raised against dinitrophenol (DNP) is incubated in whole blood where it binds to the FcεR1 on basophils. […] CD63 normally resides on the intracellular granule membrane within basophils, which upon degranulation, is then expressed on the surface where it can be detected by flow cytometry. Surface expression of CD63 correlates extremely well with the release of histamine from basophils. The CD63 assay has previously been validated as a clinical target engagement biomarker in the Fostamatinib SYK program (Braselmann et al, J. Pharm. Exp. Therap. 319:998-1008, 2006). Heparinized whole blood is mixed gently (vortex mixer) and […] per test aliquoted into a 96 well plate. Anti-DNP (1 mg/ml) is diluted 1:100 with PBS/0.1% HSA to 10 μg/ml (final concentration: 1 μg/mL). Pre-dilute DNP/BSA (5 mg/ml) to a concentration of 60 ng/ml with washing solution. Compounds: […] Reagents are provided from the Basotest® kit. Incubate 10 μl of 10 μg/ml anti DNP and 10 μl of compound with 100 μl whole blood in a 37° C. pre-warmed water bath. After 30 minutes, 20 μl of STIMULATION BUFFER is added to the whole blood samples and vortexed gently. Incubate the samples for 10 min at 37° C. in a water bath. 100 μl of DNP/BSA is added per test to the whole blood. Add 100 μl of the WASHING SOLUTION to a further test tube as a negative control. Add 100 μl of DNP/BSA (final 30 ng/ml) in the compound tubes. All tubes are mixed once more. The samples are incubated for 20 min at 37° C. in a water bath. Stop degranulation by incubating the samples on ice for 5 min. Add 20 μl of STAINING REAGENT to each tube. Vortex and incubate the tubes for 20 min in an ice bath, covered to prevent exposure to light. The whole blood samples are lysed and fixed with 2 ml of pre-warmed (room temperature) 1×LYSING SOLUTION. Vortex and incubate for 10 min at room temperature. Spin down cells (5 min, 250×g, 4° C.). Discard the supernatant. Add 3 ml of WASHING SOLUTION to the tubes. Centrifuge the tubes (5 min, 250×g, 4° C.). Aspirate the supernatant. Add 200 μl WASHING SOLUTION to the cell pellet, vortex. Incubate the tubes in a covered ice bath until analysis. Cells are analysed by flow cytometry using the blue-green excitation light (488 nm argon-ion laser). Acquire data by using fluorescence triggering in the FL2 channel (PE) to gate on basophilic granulocytes expressing high amounts of IgE. This live gating reduces the amount of data and saves memory capacity. Acquire at least 500 basophils per sample. For data evaluation and calculation, the measurement of the negative control (unstimulated blood) was set as 100% control and the measurement of the positive control (DNP/anti-DNP stimulated blood) was set as 0% control. Based on these values the % value for the measurement of each substance concentration was calculated, a concentration-effect curve fitted and an EC50 value calculated using GraphPad Prism version 6.01 for Windows. The EC50 value was calculated using a nonlinear fitting (log(inhibitor) vs. response—variable slope). Normally, the % control values calculated are between 0% and 100% values but may also occur outside these limits in individual cases based on variability or compound characteristics.

The mark [3] stands for this setting: read-out: FLT3 inhibition IC50-value (chapter 5.4).
[4] abbreviates: whole blood, DNP/anti-DNP stimulated basophils, read-out: CD63 assay EC50-value (chapter 5.2).

Sequence of Recombinant human FLT3 (amino acids 564-958) (P36888 564-958): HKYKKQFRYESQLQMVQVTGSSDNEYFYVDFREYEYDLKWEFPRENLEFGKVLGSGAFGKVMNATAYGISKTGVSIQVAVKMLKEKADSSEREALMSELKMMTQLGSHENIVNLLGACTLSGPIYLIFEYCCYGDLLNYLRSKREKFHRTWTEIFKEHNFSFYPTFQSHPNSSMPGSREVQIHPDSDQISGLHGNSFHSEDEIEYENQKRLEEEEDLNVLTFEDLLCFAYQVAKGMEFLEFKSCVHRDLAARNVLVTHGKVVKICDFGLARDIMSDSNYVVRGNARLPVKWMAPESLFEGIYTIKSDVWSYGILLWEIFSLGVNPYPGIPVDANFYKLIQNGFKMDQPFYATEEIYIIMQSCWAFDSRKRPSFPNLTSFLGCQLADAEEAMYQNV

Turning to `Cc1c2c(O[C@H](C)[C@H]3CNC(=O)C3)cc(-c3cnn(C4CCC4)c3)cc2nn1C` [Example 21, (R)-4-{(R)-1-[6-(1-Cyclobutyl-1H-pyrazol-4-yl)-2,3-dimethyl-2H-indazol-4-yloxy]-ethyl}-pyrrolidin-2-one], the IC50 in assay [1] (setting [3]) came to 2210 nM. Besides, the EC50 in assay [2] (setting [4]) was 76 nM.
For the compound `Cc1c2c(O[C@H](C)[C@H]3CNC(=O)C3)cc(-c3cnn(CC(C)C)c3)cc2nn1C` [Example 19, (R)-4-{(R)-1-[6-(1-Isobutyl-1H-pyrazol-4-yl)-2,3-dimethyl-2H-indazol-4-yloxy]-ethyl}-pyrrolidin-2-one], the IC50 in assay [1] (setting [3]) is 4950 nM. Also, the EC50 in assay [2] (setting [4]) turned out to be 107 nM.
On to `C[C@@H](Oc1cc(-c2cnn(C3CC(C)(C)OC3(C)C)c2)cc2nn(C)c(F)c12)[C@H]1CNC(=O)C1` (stereo partly drawn) [Example 14, (R)-4-((R)-1-{3-Fluoro-2-methyl-6-[1-(2,2,5,5-tetramethyl-tetrahydro-furan-3-yl)-1H-pyrazol-4-yl]-2H-indazol-4-yloxy}-ethyl)-pyrrolidin-2-one], for which the IC50 in assay [1] (setting [3]) was 4050 nM. For the same compound, in assay [2] (setting [4]), the EC50 worked out at 76 nM.
`C[C@@H](Oc1cc(-c2cnn(C(C)(C)C)c2)cc2ncn(C)c12)[C@H]1CNC(=O)C1` [example 3B.22 on page 219 of WO15017610, reference compound]: the IC50 in assay [1] (setting [3]) and in assay [1] (read-out: IC50(FLT3)) was 307 nM throughout. For the same compound, the 50% effective concentration (EC50) in assay [2] (read-out: EC50 in CD63-assay) is under 150 nM; in assay [2] (setting [4]), 29 nM.
On to `Cc1cnn2cc(-c3cnn(C(C)(C)C)c3)nc(O[C@H](C)[C@H]3CNC(=O)C3)c12` [example 5.20 on page 506 of WO15017610, reference compound], for which the IC50 in assay [1] (setting [3]) and in assay [1] (read-out: IC50(FLT3)) was 43 nM throughout. Also, the EC50 in assay [2] (read-out: EC50 in CD63-assay) is under 150 nM; in assay [2] (setting [4]), 77 nM.
`Cc1c2c(O[C@H](C)[C@H]3CNC(=O)C3)cc(-c3cnn(CCF)c3)cc2nn1C` [Example 11, (R)-4-((R)-1-{6-[1-(2-Fluoro-ethyl)-1H-pyrazol-4-yl]-2,3-dimethyl-2H-indazol-4-yloxy}-ethyl)-pyrrolidin-2-one]: the IC50 in assay [1] (setting [3]) was 3480 nM. The EC50 in assay [2] (setting [4]) came out at 65 nM.
Regarding `C[C@@H](Oc1cc(-c2cnn(CCC(F)(F)F)c2)cc2nn(C)c(F)c12)[C@H]1CNC(=O)C1` [Example 12, (R)-4-((R)-1-{3-Fluoro-2-methyl-6-[1-(3,3,3-trifluoro-propyl)-1H-pyrazol-4-yl]-2H-indazol-4-yloxy}-ethyl)-pyrrolidin-2-one], the IC50 in assay [1] (setting [3]) came out at 5030 nM. In addition, the EC50 in assay [2] (setting [4]) came out at 67 nM.
The matching figures for `Cc1c2c(O[C@H](C)[C@H]3CNC(=O)O3)nc(-c3cnn(C(C)(C)C)c3)cc2nn1C` [Example 3, (R)-5-{(R)-1-[6-(1-tert-Butyl-1H-pyrazol-4-yl)-2,3-dimethyl-2H-pyrazolo[4,3-c]pyridin-4-yloxy]-ethyl}-oxazolidin-2-one]: 1340 nM and 51 nM.
The corresponding values for `C[C@@H](Oc1cc(-c2cnn(C3CC3)c2)cc2nn(C)c(F)c12)[C@H]1CNC(=O)C1` [Example 5, (R)-4-{(R)-1-[6-(1-Cycloprop-yl-1H-pyrazol-4-yl)-3-fluoro-2-methyl-2H-indazol-4-yloxy]-ethyl}-pyrrolidin-2-one] are 3990 nM and 52 nM.
